# Legend:
# [1] = system: gram-positive and gram-negative organisms; conditions: cited from earlier work
# [2] = system: organisms associated with periodontal disease; conditions: cited from earlier work
# [3] = dog, in vivo
# Source text: Pharmacokinetic investigation of minocycline-containing periodontal microcapsules was undertaken to produce a dosage form that could be administered to the periodontal pocket and that would yield minocycline concentrations exceeding the MIC's (0.05-1.56 mcg/ml) for organisms associated with periodontal disease for extended periods of time. Therefore, a study to evaluate four different minocycline periodontal formulations relative to determining minocycline levels in crevicular fluid was conducted in a dog model. The study utilized beagle dogs with surgically created "chronic" intrabony periodontal defects. […]
# In sequence, the defects were created as follows: First, the lower fourth premolars were extracted, sockets were allowed to heal for one month, and dogs received a full mouth scaling and tooth cleaning. […] Dogs were monitored for an additional four weeks.
# For evaluation of crevicular levels of minocycline, dogs were placed under general anesthesia, and the various formulations were administered into the periodontal pockets associated with the created defects. […] The strip was then removed, and the relative amount of fluid was determined by a Periotron 6000 instrument. […]
# Samples of gingival fluid are collected as described above, and analyzed. […]
structure (smiles),measurement,setting,value
"CN(C)c1ccc(O)c2c1C[C@H]1C[C@H]3[C@H](N(C)C)C(O)=C(C(N)=O)C(=O)[C@@]3(O)C(O)=C1C2=O [minocycline, 7-dimethylamino-6-deoxy-6-demethyltetracycline]",antibacterial activity,[1],activity against a wide range of gram-positive and gram-negative organisms
same,MIC,[2],0.05 to 1.56 µg/mL
same,period for which minimum inhibitory concentrations (MIC's) can be achieved,[3],up to two
